Results taken from US12180215B2, “Substituted pyrrolo[3,4-d]imidazoles as JAK inhibitors” (HENAN MEDINNO PHARMACEUTICAL TECHNOLOGY CO., LTD., priority 2019, dated 2024).

Experiments:
JAK2 = JAK2 (Homo sapiens, UniProt O60674); assay: JAK2 kinase ADP-Glo assay (Example 60)
JAK3 = JAK3 (Homo sapiens, UniProt P52333); assay: JAK3 kinase ADP-Glo assay (Example 60)
JAK1 = JAK1 (Homo sapiens, UniProt P23458); assay: JAK1 kinase ADP-Glo assay (Example 60)
TYK2 = target: T1, TYK2 (Homo sapiens, UniProt P29597); assay: TYK2 kinase ADP-Glo assay (Example 60)
T1 sequence (P29597 871-1187 limits assumed): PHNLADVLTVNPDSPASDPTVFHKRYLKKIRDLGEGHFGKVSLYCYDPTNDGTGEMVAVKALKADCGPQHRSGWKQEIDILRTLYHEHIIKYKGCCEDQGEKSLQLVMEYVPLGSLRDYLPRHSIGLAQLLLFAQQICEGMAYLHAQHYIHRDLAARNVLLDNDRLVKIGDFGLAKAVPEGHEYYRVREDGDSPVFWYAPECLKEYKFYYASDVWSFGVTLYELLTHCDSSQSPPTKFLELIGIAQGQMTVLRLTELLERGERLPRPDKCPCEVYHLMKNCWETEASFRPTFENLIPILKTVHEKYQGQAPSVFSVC

JAK2, sequence (O60674 826-1132 limits assumed): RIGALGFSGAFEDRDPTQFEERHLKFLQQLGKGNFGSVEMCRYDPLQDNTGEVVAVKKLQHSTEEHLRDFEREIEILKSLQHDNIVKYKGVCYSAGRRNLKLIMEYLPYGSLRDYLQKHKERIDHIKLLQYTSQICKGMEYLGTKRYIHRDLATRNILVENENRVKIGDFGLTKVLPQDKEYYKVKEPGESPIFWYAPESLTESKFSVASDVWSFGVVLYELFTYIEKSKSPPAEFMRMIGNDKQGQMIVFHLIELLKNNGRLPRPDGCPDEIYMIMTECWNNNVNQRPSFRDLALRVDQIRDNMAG
JAK1, sequence (P23458 850-1154 limits assumed): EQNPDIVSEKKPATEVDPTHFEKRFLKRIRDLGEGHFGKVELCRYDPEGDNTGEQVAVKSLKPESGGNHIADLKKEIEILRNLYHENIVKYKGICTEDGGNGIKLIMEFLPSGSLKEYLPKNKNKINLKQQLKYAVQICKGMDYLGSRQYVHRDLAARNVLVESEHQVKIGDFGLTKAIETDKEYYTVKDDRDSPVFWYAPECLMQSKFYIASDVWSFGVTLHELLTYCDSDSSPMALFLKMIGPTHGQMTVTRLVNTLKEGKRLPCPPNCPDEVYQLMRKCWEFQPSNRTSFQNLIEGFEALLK
JAK3, sequence (P52333 795-1124 limits assumed): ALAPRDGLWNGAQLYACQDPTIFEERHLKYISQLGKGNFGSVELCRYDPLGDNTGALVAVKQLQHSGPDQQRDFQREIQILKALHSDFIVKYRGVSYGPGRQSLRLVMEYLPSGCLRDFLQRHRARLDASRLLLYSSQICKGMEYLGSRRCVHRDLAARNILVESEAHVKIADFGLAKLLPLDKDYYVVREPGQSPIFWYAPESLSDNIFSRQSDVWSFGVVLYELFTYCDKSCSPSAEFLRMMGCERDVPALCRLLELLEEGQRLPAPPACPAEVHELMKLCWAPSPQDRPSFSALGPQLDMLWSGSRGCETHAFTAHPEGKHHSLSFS

Row | SMILES | IC50 (JAK2) | IC50 (JAK3) | IC50 (JAK1) | IC50 (TYK2)
1 | CCc1cc(O)c(F)cc1-c1ccc2c(-c3nc4c([nH]3)CN(C(=O)NC3CCC3)C4)n[nH]c2c1 [MDI-260, N-cyclobutyl-2-(6-(2-ethyl-5-fluoro-4-hydroxyphenyl)-1H-indazol-3-yl)-4,6-dihydropyrrolo[3,4-d]imidazol-5(1H)-carboxamide] | 2.99 nM | 2.47 nM | 2.28 nM | 8.98 nM
2 | CCc1cc(O)c(F)cc1-c1ccc2c(-c3nc4c([nH]3)CN(C(=O)N3CCN(CC)CC3)C4)n[nH]c2c1 [MDI-236, (2-(6-(2-ethyl-5-fluoro-4-hydroxyphenyl)-1H-indazol-3-yl)-4,6-dihydropyrrolo[3,4-d]imidazol-5-(1H)-yl)(4-ethylpiperazin-1-yl)ketone] | 0.329 nM | 0.141 nM | 0.0403 nM | 0.0954 nM
3 | CCc1cc(O)c(F)cc1-c1ccc2c(-c3nc4c([nH]3)CN(C(=O)CC#N)C4)n[nH]c2c1 [MDI-256, 3-(2-(6-(2-ethyl-5-fluoro-4-hydroxyphenyl)-1H-indazol-3-yl)-4,6-dihydropyrrolo[3,4-d]imidazol-5(1H)-yl)-3-oxypropionitrile] | 3.06 nM | 2.71 nM | 0.7 nM | 6.14 nM
4 | CCc1cc(O)c(F)cc1-c1ccc2c(-c3nc4c([nH]3)CN(C(=O)N3CC[C@@H](O)C3)C4)n[nH]c2c1 [MDI-243, (R)-(2-(6-(2-ethyl-5-fluoro-4-hydroxyphenyl)-1H-indazol-3-yl)-4,6-dihydropyrrolo[3,4-d]imidazol-5(1H)-yl)(3-hydroxylpyrrolidin-1-yl)ketone] | 0.499 nM | 0.269 nM | 0.118 nM | 0.167 nM
5 | CCc1cc(O)c(F)cc1-c1ccc2c(-c3nc4c([nH]3)CN(C(=O)N3CCCCC3)C4)n[nH]c2c1 [MDI-233, (2-(6-(2-ethyl-5-fluoro-4-hydroxyphenyl)-1H-indazol-3-yl)-4,6-dihydropyrrolo[3,4-d]imidazol-5-(1H)-yl)(piperidin-1-yl)ketone] | 1.33 nM | 2.6 nM | 1.31 nM | 3.5 nM
6 | CCc1cc(O)c(F)cc1-c1ccc2c(-c3nc4c([nH]3)CN(C(=O)c3ccnnc3)C4)n[nH]c2c1 [MDI-214, (2-(6-(2-ethyl-5-fluoro-4-hydroxyphenyl)-1H-indazol-3-yl)-pyrrolo[3,4-d]imidazol-5-(1H,4H,6H)-yl)(pyridazin-4-yl)ketone] | 0.273 nM | 0.352 nM | 0.303 nM | 2.8 nM
7 | CCc1cc(O)c(F)cc1-c1ccc2c(-c3nc4c([nH]3)CN(C(=O)c3cccnn3)C4)n[nH]c2c1 [MDI-215, (2-(6-(2-ethyl-5-fluoro-4-hydroxyphenyl)-1H-indazol-3-yl)-pyrrolo[3,4-d]imidazol-5-(1H,4H,6H)-yl)(pyridazin-3-yl)ketone] | 0.277 nM | 0.308 nM | 0.197 nM | 1.58 nM
8 | CCc1cc(O)c(F)cc1-c1ccc2c(-c3nc4c([nH]3)CN(C(=O)N3CCC3)C4)n[nH]c2c1 [MDI-232, Azetidin-1-yl(2-(6-(2-ethyl-5-fluoro-4-hydroxyphenyl)-1H-indazol-3-yl)-4,6-dihydropyrrolo[3,4-d]imidazol-5-(1H)-yl)ketone] | 1.04 nM | 0.868 nM | 0.745 nM | 2.26 nM
9 | CCc1cc(O)c(F)cc1-c1ccc2c(-c3nc4c([nH]3)CN(C(=O)CC(C)C)C4)n[nH]c2c1 [MDI-230, 1-(2-(6-(2-ethyl-5-fluoro-4-hydroxyphenyl)-1H-indazol-3-yl)-4,6-dihydropyrrolo[3,4-d]imidazol-5-(1H)-yl)-3-methylbutan-1-one] | 0.555 nM | 0.821 nM | 0.819 nM | 6.57 nM
10 | CCc1cc(O)c(F)cc1-c1ccc2c(-c3nc4c([nH]3)CN(C(=O)CC3CC3)C4)n[nH]c2c1 [MDI-229, 2-cyclopropyl-1-(2-(6-(2-ethyl-5-fluoro-4-hydroxyphenyl)-1H-indazol-3-yl)-4,6-dihydropyrrolo[3,4-d]imidazol-5-(1H)-yl)ethan-1-one] | 0.356 nM | 0.481 nM | 0.753 nM | 4.71 nM
11 | CCc1cc(O)c(F)cc1-c1ccc2c(-c3nc4c([nH]3)CN(C(=O)N3CC(C#N)C3)C4)n[nH]c2c1 [MDI-249, 1-(2-(6-(2-ethyl-5-fluoro-4-hydroxyphenyl)-1H-indazol-3-yl)-1,4,5,6-tetrahydropyrrolo[3,4-d]imidazol-5-carbonyl)Azetidin-3-nitrile] | 0.697 nM | 0.398 nM | 0.307 nM | 1.93 nM
12 | CCc1cc(O)c(F)cc1-c1ccc2c(-c3nc4c([nH]3)CN(CC3CC3)C4)n[nH]c2c1 [MDI-208, 4-(3-(5-(cyclopropylmethyl)-1,4,5,6-tetrahydropyrrolo[3,4-d]imidazol-2-yl)-1H-indazol-6-yl)-5-ethyl-2-fluorophenol] | 0.44 nM | 1.11 nM | 0.153 nM | 9.31 nM
13 | CCNC(=O)N1Cc2nc(-c3n[nH]c4cc(-c5cc(F)c(O)cc5CC)ccc34)[nH]c2C1 [MDI-247, 2-(6-(2-ethyl-5-fluoro-4-hydroxyphenyl)-1H-indazol-3-yl)-N-ethyl-4,6-dihydropyrrolo[3,4-d]imidazol-5-(1H)-carboxamide] | 1.88 nM | 1.3 nM | 0.557 nM | 2.35 nM
14 | CCOC(=O)N1Cc2nc(-c3n[nH]c4cc(-c5cc(F)c(O)cc5CC)ccc34)[nH]c2C1 [MDI-253, Ethyl 2-(6-(2-ethyl-5-fluoro-4-hydroxyphenyl)-1H-indazol-3-yl)-4,6-dihydropyrrolo[3,4-d]imidazol-5(1H)-carboxylate] | 1.6 nM | 1.5 nM | 2.9 nM | 31 nM
15 | CCc1cc(O)c(F)cc1-c1ccc2c(-c3nc4c([nH]3)CN(C(=O)N3CC(O)C3)C4)n[nH]c2c1 [MDI-244, (2-(6-(2-ethyl-5-fluoro-4-hydroxyphenyl)-1H-indazol-3-yl)-4,6-dihydropyrrolo[3,4-d]imidazol-5(1H)-yl)(3-hydroxylazetidin-1-yl)ketone] | 0.915 nM | 0.55 nM | 0.248 nM | 1.31 nM
16 | CCc1cc(O)c(F)cc1-c1ccc2c(-c3nc4c([nH]3)CN(S(=O)(=O)C3CCC3)C4)n[nH]c2c1 [MDI-219, 4-(3-(5-(cyclobutylsulfonyl)-1,4,5,6-tetrahydropyrrolo[3,4-d]imidazol-2-yl)-1H-indazol-6-yl)-5-ethyl-2-fluorophenol] | 1.38 nM | 2.29 nM | 1.38 nM | 1.88 nM
17 | CCc1cc(O)c(F)cc1-c1ccc2c(-c3nc4c([nH]3)CN(C(=O)N3CCCC3)C4)n[nH]c2c1 [MDI-231, (2-(6-(2-ethyl-5-fluoro-4-hydroxyphenyl)-1H-indazol-3-yl)-4,6-dihydropyrrolo[3,4-d]imidazol-5-(1H)-yl)(pyrrolidin-1-yl)ketone] | 1.17 nM | 0.893 nM | 0.53 nM | 1.31 nM
18 | CCc1cc(O)c(F)cc1-c1cc2[nH]nc(-c3nc4c([nH]3)CN(C(=O)C3CC3)C4)c2cn1 [MDI-242, cyclopropyl(2-(6-(2-ethyl-5-fluoro-4-hydroxyphenyl)-1H-pyrazolo[4,3-c]pyridine-3-yl)-4,6-dihydropyrrolo[3,4-d]imidazol-5(1H)-yl)ketone] | 28.6 nM | 152 nM | 67.2 nM | 583 nM
19 | CCc1cc(O)c(F)cc1-c1ccc2c(-c3nc4c([nH]3)CN(C(=O)[C@@H]3CCCN3)C4)n[nH]c2c1 [MDI-262, (S)-6-(2-ethyl-5-fluoro-4-hydroxyphenyl)-3-(5-prolyl-1,4,5,6-tetrahydropyrrolo[3,4-d]imidazol-2-yl)-1H-indazol] | 1.54 nM | 1.22 nM | 0.319 nM | 2.59 nM
20 | CCc1cc(O)c(F)cc1-c1ccc2c(-c3nc4c([nH]3)CN(C(=O)N3CCC(O)CC3)C4)n[nH]c2c1 [MDI-245, (2-(6-(2-ethyl-5-fluoro-4-hydroxyphenyl)-1H-indazol-3-yl)-4,6-dihydropyrrolo[3,4-d]imidazol-5(1H)-yl)(4-hydroxylpiperidin-1-yl)ketone] | 0.648 nM | 0.306 nM | 0.178 nM | 0.365 nM
21 | CCc1cc(O)c(F)cc1-c1ccc2c(-c3nc4c([nH]3)CN(C(=O)N(C)C)C4)n[nH]c2c1 [MDI-257, 2-(6-(2-ethyl-5-fluoro-4-hydroxyphenyl)-1H-indazol-3-yl)-N,N-dimethyl-4,6-dihydropyrrolo[3,4-d]imidazol-5(1H)-carboxamide] | 0.6 nM | 0.381 nM | 0.185 nM | 0.684 nM
22 | CCc1cc(O)c(F)cc1-c1cc(C)c2c(-c3nc4c([nH]3)CN(C(=O)N3CC[C@H](O)C3)C4)n[nH]c2c1 [MDI-240, (S)-(2-(6-(2-ethyl-5-fluoro-4-hydroxyphenyl)-4-methyl-1H-indazol-3-yl)-4,6-dihydropyrrolo[3,4-d]imidazol-5(1H)-yl)(3-hydroxylpyrrolidin-1-yl)ketone] | 0.842 nM | 2.02 nM | 0.45 nM | 5.34 nM
